Test results from US20250034139A1, “AMINE COMPOUNDS HAVING ANTI-INFLAMMATORY, ANTIFUNGAL, ANTIPARASITIC, AND ANTICANCER ACTIVITY” (PHARMA CINQ, LLC, priority 2013, published 2025).

Assays:
THP-1 cells = experiment: Example D: LPS-triggered THP-1 cell death assay, acute/5-hour and chronic/48-hour; assay type: cell-based, Human; details: for Viable cell percent change, Chronic/48-hour, Mean: 10 ng/ml LPS, 0.1 μM test compound; for activity relative to AC in the LPS-triggered THP-1 cell death assay, in words: 0.1 μM, 5-hour and 48-hour time points
Method: Compounds of the invention were tested at 0.1 μM versus AC in the LPS-triggered THP-1 cell death assay. Both acute/5-hour and chronic/48-hour phases of cell death were assessed. Compounds were screened in batches with DMSO as the negative control and AC as the high activity control.

[1] = tested on: 4T1 murine breast cancer cells; experiment: Example S: in vitro anticancer screen, 4T1 cells, Wst1; assay type: cell-based, mouse; details: 18 hr, Wst1; for viability at 1 µM / viability at 5 µM: Mus musculus, 4T1, 18 h; for viability at 1 µM: read-out: 4T1 1 μM, percent of cancer cell survival relative to vehicle treated cells; for viability at 5 µM: read-out: 4T1 5 μM, percent of cancer cell survival relative to vehicle treated cells
How it was run: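 4T1 cells seeded at 1×10^4/well were exposed to compound at 1 μM or 5 μM for 18 hr after plating. Wst1 tetrazolium dye was then added for about 2 hr and absorbance read at 450 nm (reference 630 nm). Values are percent survival relative to vehicle-treated cells.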

[2] = tested on: PC3 human prostate cancer cells; experiment: Example S: in vitro anticancer screen, PC-3 cells, Wst1; assay type: cell-based; details: approximately 20 hours, Wst1; for viability at 0.5 µM / viability at 2.5 µM / viability at 0.4 µM: Homo sapiens, PC-3, read-out: PC-3, percent of cancer cell survival relative to vehicle treated cells
Method: Activity against PC3 human prostate cancer cells in vitro was assessed by a similar method. PC-3 prostate cancer cells were plated at 2×10^4 cells/well in 96 well flat bottom tissue culture plates, and incubated for approximately 20 hours with vehicle or test compounds at concentrations of 0.4, 0.5 or 2.5 μM as indicated for specific compounds in the right-hand column of Table 37. A 1/10th volume of Wst1 dye was added/well and incubated for two hours in the cell culture incubator. Samples were analyzed in triplicate on an EL800 Universal Microplate Reader at 450 nm, reference wavelength 630 nm.
Numerical values in the Table 37 represent percent of cancer cell survival relative to vehicle treated cells at the indicated concentrations, with values under 100 indicating anticancer cytotoxic activity at the drugs concentrations tested.

[3] = tested on: PC-3 prostate cancer cells; experiment: Example T: sensitisation of PC-3 cells to doxorubicin, oxaliplatin, paclitaxel or vincristine, Wst1; assay type: cell-based, human; details: PC-3 cells, 72 hours; for viability at 0.5 µM / viability at 2.5 µM / viability at 0.4 µM: Homo sapiens, read-out: No Chemo: percent cell survival; for viability at 0.5 µM: compound 0.5 μM alone; for Doxorubicin 3.5 μM: percent cell survival / Oxaliplatin 100 μM: percent cell survival / Paclitaxel 50 μM: percent cell survival / Vincristine 100 nM: percent cell survival: chemotherapy agent alone normalized to 100%; for viability at 0.4 µM: compound 0.4 μM alone
[4] = compound 0.5 μM + doxorubicin 3.5 μM
[5] = compound 0.5 μM + oxaliplatin 100 μM
[6] = compound 0.5 μM + paclitaxel 50 μM
[7] = compound 0.5 μM + vincristine 100 nM
[8] = compound 2.5 μM alone, Wst1, vehicle = 100
[9] = compound 2.5 μM + doxorubicin 3.5 μM
[10] = compound 2.5 μM + oxaliplatin 100 μM
[11] = compound 2.5 μM + paclitaxel 50 μM
[12] = compound 2.5 μM + vincristine 100 nM
[13] = compound 0.4 μM + doxorubicin 3.5 μM
[14] = compound 0.4 μM + oxaliplatin 100 μM
[15] = compound 0.4 μM + paclitaxel 50 μM
[16] = compound 0.4 μM + vincristine 100 nM

Row | Structure (SMILES) | Viable cell percent change, Chronic/48-hour, Mean (THP-1 cells) | activity relative to AC in the LPS-triggered THP-1 cell death assay, in words (THP-1 cells) | viability at 1 µM ([1]; 1 μM) | viability at 5 µM ([1]; 5 μM) | viability at 2.5 µM ([2]; 2.5 μM) | viability at 2.5 µM [3, 8] | Doxorubicin 3.5 μM: percent cell survival [3, 9] | Oxaliplatin 100 μM: percent cell survival [3, 10] | Paclitaxel 50 μM: percent cell survival [3, 11] | Vincristine 100 nM: percent cell survival [3, 12] | viability at 0.4 µM [2] | viability at 0.4 µM ([3]; Wst1, vehicle = 100) | Doxorubicin 3.5 μM: percent cell survival [3, 13] | Oxaliplatin 100 μM: percent cell survival [3, 14] | Paclitaxel 50 μM: percent cell survival [3, 15] | Vincristine 100 nM: percent cell survival [3, 16] | other results
1 | CCCCCCOc1cccc(OCCCCNc2ccnc3ccccc23)c1 [CV, N-{4-[3-(Hexyloxy)phenoxy]butyl}quinolin-4-amine] | 23.02% | equivalent activity to AC at both the 5-hour and 48-hour time points | 25.7% | 16.9% |  |  |  |  |  |  |  |  |  |  |  |  | viability at 0.5 µM [2]: 73.8%; viability at 0.5 µM ([3]; Wst1, vehicle = 100): 73.8%; Doxorubicin 3.5 μM: percent cell survival [3, 4]: 36.2%; Oxaliplatin 100 μM: percent cell survival [3, 5]: 30.6%; Paclitaxel 50 μM: percent cell survival [3, 6]: 21.4%; Vincristine 100 nM: percent cell survival [3, 7]: 36.1%
2 | CCCCCCOCCCCCCNc1ccnc2ccccc12 [CK, N-[6-(Hexyloxy)hexyl]quinolin-4-amine] | 42.23% |  | 62.5% | 45.3% |  |  |  |  |  |  |  |  |  |  |  |  | viability at 0.5 µM [2]: 51.4%; viability at 0.5 µM ([3]; Wst1, vehicle = 100): 51.4%; Doxorubicin 3.5 μM: percent cell survival [3, 4]: 111.6%; Oxaliplatin 100 μM: percent cell survival [3, 5]: 143%; Paclitaxel 50 μM: percent cell survival [3, 6]: 64.2%; Vincristine 100 nM: percent cell survival [3, 7]: 138.2%
3 | CCCCCCNc1ccnc2ccccc12 [EI, N-Hexylquinolin-4-amine] | 39.53% |  | 95% | 45.8% | 31.2% | 31.2% | 66.1% | 75.1% | 50.1% | 69.5% |  |  |  |  |  |  | 
4 | c1ccc(COc2cccc(CNc3ccnc4ccccc34)c2)cc1 [BU, N-[3-(Benzyloxy)benzyl]quinolin-4-amine] | 18.10% | equivalent activity to AC at both the 5-hour and 48-hour time points | 17.6% | 21.4% |  |  |  |  |  |  | 24% | 24% | 48.1% | 57.2% | 31% | 26.7% | 
5 | c1cncc(CNc2ccnc3ccccc23)c1 [BY, N-(Pyridin-3-ylmethyl)quinolin-4-amine] | 39.64% |  | 107% | 209% | 96.6% | 96.6% | 98.4% | 101.1% | 99.9% | 94.1% |  |  |  |  |  |  | 
6 | CCCCCCOCCCCCCCCNc1ncnc2ccccc12 [EW, N-[8-(Hexyloxy)octyl]quinazolin-4-amine] |  | equivalent activity to AC at both the 5-hour and 48-hour time points | 21.2% | 18.9% |  |  |  |  |  |  | 14.1% | 14.1% | 20% | 16.6% | 21.9% | 14.8% | 
7 | c1ccc(COc2ccccc2Nc2ccnc3ccccc23)cc1 [DO, N-[2-(Benzyloxy)phenyl]quinolin-4-amine] | 36.46% |  | 116% | 35.2% | 59.2% | 59.2% | 79.9% | 89.9% | 93.4% | 90.1% |  |  |  |  |  |  | 
8 | CCCCOCCCCCCNc1ccnc2ccccc12 [CL, N-(6-Butoxyhexyl)quinolin-4-amine] | 29.43% | equivalent activity to AC at both the 5-hour and 48-hour time points | 25.6% | 19.5% |  |  |  |  |  |  | 58.1% | 58.1% | 22.6% | 23.2% | 50.3% | 27.7% | 
9 | c1ccc(Oc2ccccc2Nc2ccnc3ccccc23)cc1 [DF, N-(2-Phenoxyphenyl)quinolin-4-amine] | 39.26% |  | 27.1% | 20.8% |  |  |  |  |  |  | 102% | 102% | 88.7% | 96.5% | 89.4% | 95.4% | 
10 | CCCCCCOCCCCCOCCCn1cnc2cnc3ccccc3c21 [CF] | 27.26% |  |  |  |  |  | 68.8% | 83.5% | 70.3% | 75.3% |  |  |  |  |  |  | 4T1 1 μM, percent of cancer cell survival relative to vehicle treated cells ([1]; 1 μM): 96.7%; 4T1 5 μM, percent of cancer cell survival relative to vehicle treated cells ([1]; 5 μM): 28.6%; PC-3, percent of cancer cell survival relative to vehicle treated cells ([2]; 2.5 μM): 126.4%; No Chemo: percent cell survival [3, 8]: 126.4%
11 | c1ccc(COCCCCCCCCNc2ccnc3ccccc23)cc1 [CO, N-[8-(Benzyloxy)octyl]quinolin-4-amine] | 43.95% |  | 28.4% | 55.6% |  |  |  |  |  |  | 77.1% | 77.1% | 28.4% | 29.2% | 51.6% | 32.8% | 
12 | CCCCCCOc1ccccc1OCCCCNc1ccnc2ccccc12 [CR, N-{4-[2-(Hexyloxy)phenoxy]butyl}quinolin-4-amine] | 40.02% |  | 110% | 31.8% | 53.2% | 53.2% | 87.6% | 89.3% | 93.4% | 86.9% |  |  |  |  |  |  | 
13 | c1ccc(COc2ccc(Nc3ccnc4ccccc34)cc2)cc1 [DJ, N-[4-(Benzyloxy)phenyl]quinolin-4-amine] | 22.32% |  | 89% | 66.9% | 85.9% | 85.9% | 116.2% | 137.1% | 137.1% | 115.3% |  |  |  |  |  |  | 
